Earlier results in publication PMC7982506 (Acta Pharmaceutica Sinica. B, 2020).

Experiments:
SHP2-PTP = target: T1, SHP2-PTP (Homo sapiens, UniProt Q06124); conditions: read-out: IC50 reported previously
T1 sequence (Q06124 237-535): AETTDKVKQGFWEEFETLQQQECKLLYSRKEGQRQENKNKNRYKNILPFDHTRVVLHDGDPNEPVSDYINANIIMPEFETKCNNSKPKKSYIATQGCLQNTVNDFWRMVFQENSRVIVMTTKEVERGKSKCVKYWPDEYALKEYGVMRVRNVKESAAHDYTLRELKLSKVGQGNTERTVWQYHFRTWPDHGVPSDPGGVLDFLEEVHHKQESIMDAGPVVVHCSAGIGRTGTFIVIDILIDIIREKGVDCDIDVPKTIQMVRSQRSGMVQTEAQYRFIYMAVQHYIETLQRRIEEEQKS

p-ERK = conditions: versus SHP099
cell growth = conditions: versus SHP099
SHP2-WT = target: T2, SHP2-WT (Homo sapiens, UniProt Q06124); conditions: read-out: EC50 of p-IRS1 peptide for SHP2-WT, previously reported
T2 sequence (Q06124 1-535): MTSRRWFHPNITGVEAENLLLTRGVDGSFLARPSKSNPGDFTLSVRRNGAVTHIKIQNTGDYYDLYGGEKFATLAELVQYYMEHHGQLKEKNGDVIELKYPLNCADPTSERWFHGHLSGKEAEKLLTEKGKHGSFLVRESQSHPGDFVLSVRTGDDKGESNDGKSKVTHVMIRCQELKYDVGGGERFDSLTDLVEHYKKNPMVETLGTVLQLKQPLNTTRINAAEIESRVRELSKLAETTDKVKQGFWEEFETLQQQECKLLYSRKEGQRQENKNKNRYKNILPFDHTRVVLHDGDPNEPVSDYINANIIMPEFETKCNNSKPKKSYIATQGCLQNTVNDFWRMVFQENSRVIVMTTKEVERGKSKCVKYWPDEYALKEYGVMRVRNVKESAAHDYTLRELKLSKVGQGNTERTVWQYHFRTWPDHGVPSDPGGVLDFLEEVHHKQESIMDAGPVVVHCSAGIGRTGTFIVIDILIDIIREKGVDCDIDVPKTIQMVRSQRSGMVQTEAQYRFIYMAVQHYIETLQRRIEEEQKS

Compound: [Na+].[Na+].[Na+].[O]=[V]([O-])([O-])[O-] [Na3VO4]
- IC50 (SHP2-PTP): 10 µM

Compound: Cc1ncsc1-c1ccc([C@H](C)NC(=O)[C@@H]2C[C@@H](O)CN2C(=O)[C@@H](NC(=O)CCCCCCCCN2CCN(C(=O)CCC(=O)Nc3cccc(Sc4ncc(N5CCC(C)(N)CC5)nc4N)c3Cl)CC2)C(C)(C)C)cc1 [SHP2-D26]
- fold more potent than SHP099 in inhibition of p-ERK (p-ERK): 30 fold
- fold more potent than SHP099 in inhibition of cell growth (cell growth): 30 fold

Compound: H2N-LN(pY)IDLDLV(dPEG8)LST(pY)ASINFQK-amide [p-IRS1 peptide]
- EC50 (SHP2-WT): 0.25 µM
